Test results: PMC12073402, “A Selective MAP3K1 Inhibitor Facilitates Discovery of NPM1 as a Member of the Network” (Molecules, 2025)

How the values were obtained:
Test in all cases: KiNativ kinome profiling in PANC-1 lysate
Type in all cases: binding
[1] = molecular target: T1, IRAK4 (Homo sapiens, UniProt Q9NWZ3)
T1 construct: we opted to conduct a kinome screen (KiNativ) in PANC-1 cell lysates; endogenous in cells; host or cells: PANC-1 cell lysate
How it was run: (§1)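 PANC-1 lysates were incubated with 5 μM inhibitor or DMSO, then labeled with a desthiobiotin-ATP acyl-phosphate probe that biotinylates conserved kinase lysines. Tryptic peptides were streptavidin-enriched and quantified by LC-MS/MS, reported as % change in MS signal from duplicate treated and duplicate control samples.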

[2] = molecular target: T2, CRK7 (Homo sapiens, UniProt Q9NYV4); conditions: Lys2
T2 construct: endogenous in cells; host or cells: PANC-1 cell lysate
How it was run: as §1

[3] = molecular target: T3, MAP2K4 (Homo sapiens, UniProt P45985)
T3 construct: endogenous in cells; host or cells: PANC-1 cell lysate
T3 sequence (P45985 whole entry): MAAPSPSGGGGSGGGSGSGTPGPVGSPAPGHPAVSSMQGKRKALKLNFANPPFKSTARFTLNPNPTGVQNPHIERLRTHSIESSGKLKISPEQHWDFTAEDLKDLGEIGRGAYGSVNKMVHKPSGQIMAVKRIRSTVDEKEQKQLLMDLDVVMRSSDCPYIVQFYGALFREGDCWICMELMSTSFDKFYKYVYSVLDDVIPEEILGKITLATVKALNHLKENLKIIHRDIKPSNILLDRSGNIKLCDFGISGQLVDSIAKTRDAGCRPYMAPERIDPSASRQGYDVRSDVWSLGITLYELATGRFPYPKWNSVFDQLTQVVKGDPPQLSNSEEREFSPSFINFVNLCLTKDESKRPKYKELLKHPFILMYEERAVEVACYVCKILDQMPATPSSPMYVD
How it was run: as §1

[4] = tested on: MAST1, MAST2; conditions: 5 µM; Lys2; DLKPDNLLITSMGHIK
How it was run: as §1

[5] = molecular target: T4, GSK3A (Homo sapiens, UniProt P49840); conditions: Lys2
T4 construct: we opted to conduct a kinome screen (KiNativ) in PANC-1 cell lysates; endogenous in cells; host or cells: PANC-1 cell lysate
How it was run: as §1

[6] = molecular target: T5, MPSK1 (Homo sapiens, UniProt O75716); conditions: Lys2
T5 construct: endogenous in cells; host or cells: PANC-1
How it was run: as §1

[7] = molecular target: T6, CaMKK1 (Homo sapiens, UniProt Q8N5S9); conditions: Lys2
T6 construct: endogenous in cells; host or cells: PANC-1 cell lysate
How it was run: as §1

[8] = tested on: ROCK1, ROCK2; conditions: 5 µM
How it was run: as §1

[9] = molecular target: T7, LATS2 (Homo sapiens, UniProt Q9NRM7)
T7 construct: we opted to conduct a kinome screen (KiNativ) in PANC-1 cell lysates; endogenous in cells; host or cells: PANC-1 cell lysate
T7 sequence (Q9NRM7 whole entry): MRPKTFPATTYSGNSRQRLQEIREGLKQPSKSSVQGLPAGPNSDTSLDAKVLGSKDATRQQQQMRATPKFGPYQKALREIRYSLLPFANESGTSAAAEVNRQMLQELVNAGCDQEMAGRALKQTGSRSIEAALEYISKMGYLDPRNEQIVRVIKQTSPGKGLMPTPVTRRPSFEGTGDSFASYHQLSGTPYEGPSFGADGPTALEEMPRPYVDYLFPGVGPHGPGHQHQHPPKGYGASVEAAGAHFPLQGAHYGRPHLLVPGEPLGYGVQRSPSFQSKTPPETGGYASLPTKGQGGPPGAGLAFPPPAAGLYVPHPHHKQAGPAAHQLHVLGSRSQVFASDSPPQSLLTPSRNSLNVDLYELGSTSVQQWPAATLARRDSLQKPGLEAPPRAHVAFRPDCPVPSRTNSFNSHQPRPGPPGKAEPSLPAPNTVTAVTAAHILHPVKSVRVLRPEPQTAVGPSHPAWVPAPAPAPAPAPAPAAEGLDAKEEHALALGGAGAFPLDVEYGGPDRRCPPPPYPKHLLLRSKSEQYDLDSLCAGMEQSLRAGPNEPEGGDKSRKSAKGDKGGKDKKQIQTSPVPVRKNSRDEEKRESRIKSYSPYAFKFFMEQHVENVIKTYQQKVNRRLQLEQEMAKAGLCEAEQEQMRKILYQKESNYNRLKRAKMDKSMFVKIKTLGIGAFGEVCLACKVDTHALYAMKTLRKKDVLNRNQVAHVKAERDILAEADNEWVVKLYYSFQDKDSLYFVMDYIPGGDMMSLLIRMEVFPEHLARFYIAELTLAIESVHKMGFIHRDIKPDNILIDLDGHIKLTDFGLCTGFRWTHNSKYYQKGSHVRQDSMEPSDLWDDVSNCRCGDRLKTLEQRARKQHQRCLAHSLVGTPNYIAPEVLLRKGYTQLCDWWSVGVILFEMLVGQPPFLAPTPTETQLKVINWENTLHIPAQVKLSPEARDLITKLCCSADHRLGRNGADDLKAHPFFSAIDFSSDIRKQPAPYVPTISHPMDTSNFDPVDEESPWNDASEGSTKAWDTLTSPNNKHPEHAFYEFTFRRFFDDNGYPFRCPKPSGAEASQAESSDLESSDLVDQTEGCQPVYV
How it was run: as §1

[10] = molecular target: T8, NuaK1 (Homo sapiens, UniProt O60285); conditions: Lys1
T8 construct: endogenous in cells; host or cells: PANC-1 cell lysate
How it was run: as §1

[11] = molecular target: T9, NuaK2 (Homo sapiens, UniProt Q9H093); conditions: Lys1
T9 construct: endogenous in cells; host or cells: PANC-1 cell lysate
How it was run: as §1

[12] = molecular target: T10, MST3 (Homo sapiens, UniProt Q9Y6E0); conditions: Lys2
T10 construct: endogenous in cells; host or cells: PANC-1
How it was run: as §1

[13] = molecular target: T11, SLK (Homo sapiens, UniProt Q9H2G2)
T11 construct: endogenous in cells; host or cells: PANC-1 cell lysate
T11 sequence (Q9H2G2 whole entry): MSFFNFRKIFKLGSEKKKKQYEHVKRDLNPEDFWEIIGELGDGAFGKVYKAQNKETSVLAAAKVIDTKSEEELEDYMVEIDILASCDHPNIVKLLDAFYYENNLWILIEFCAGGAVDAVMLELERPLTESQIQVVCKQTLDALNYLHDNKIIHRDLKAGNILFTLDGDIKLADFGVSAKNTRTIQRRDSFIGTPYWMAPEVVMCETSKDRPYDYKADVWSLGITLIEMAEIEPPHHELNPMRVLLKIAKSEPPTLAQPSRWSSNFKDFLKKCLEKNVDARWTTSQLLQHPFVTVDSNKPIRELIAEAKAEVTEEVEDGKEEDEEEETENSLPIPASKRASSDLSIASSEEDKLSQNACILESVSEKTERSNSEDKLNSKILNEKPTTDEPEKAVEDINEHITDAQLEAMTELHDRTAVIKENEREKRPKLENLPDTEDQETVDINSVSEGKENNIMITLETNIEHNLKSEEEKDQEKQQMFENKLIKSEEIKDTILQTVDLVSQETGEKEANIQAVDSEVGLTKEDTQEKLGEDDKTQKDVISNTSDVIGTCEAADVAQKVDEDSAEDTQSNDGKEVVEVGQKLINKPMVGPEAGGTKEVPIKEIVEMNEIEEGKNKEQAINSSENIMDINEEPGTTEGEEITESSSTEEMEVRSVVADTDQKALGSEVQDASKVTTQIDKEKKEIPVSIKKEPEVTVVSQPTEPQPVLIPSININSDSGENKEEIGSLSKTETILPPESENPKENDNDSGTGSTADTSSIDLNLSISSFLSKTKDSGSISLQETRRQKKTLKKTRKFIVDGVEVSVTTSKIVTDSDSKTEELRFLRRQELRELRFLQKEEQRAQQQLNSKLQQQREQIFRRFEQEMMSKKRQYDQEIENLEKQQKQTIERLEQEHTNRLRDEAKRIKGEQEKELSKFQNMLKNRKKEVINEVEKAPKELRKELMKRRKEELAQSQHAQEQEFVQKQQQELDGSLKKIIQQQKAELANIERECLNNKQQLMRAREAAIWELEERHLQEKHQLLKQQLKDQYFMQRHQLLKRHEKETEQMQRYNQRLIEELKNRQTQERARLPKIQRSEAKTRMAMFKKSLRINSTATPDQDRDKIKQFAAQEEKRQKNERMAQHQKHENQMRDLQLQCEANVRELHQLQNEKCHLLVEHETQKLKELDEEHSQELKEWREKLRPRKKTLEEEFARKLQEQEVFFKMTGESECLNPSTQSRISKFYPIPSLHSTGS
How it was run: as §1

[14] = molecular target: T12, CSK (Homo sapiens, UniProt P41240)
T12 construct: endogenous in cells; host or cells: PANC-1 cell lysate
T12 sequence (P41240 whole entry): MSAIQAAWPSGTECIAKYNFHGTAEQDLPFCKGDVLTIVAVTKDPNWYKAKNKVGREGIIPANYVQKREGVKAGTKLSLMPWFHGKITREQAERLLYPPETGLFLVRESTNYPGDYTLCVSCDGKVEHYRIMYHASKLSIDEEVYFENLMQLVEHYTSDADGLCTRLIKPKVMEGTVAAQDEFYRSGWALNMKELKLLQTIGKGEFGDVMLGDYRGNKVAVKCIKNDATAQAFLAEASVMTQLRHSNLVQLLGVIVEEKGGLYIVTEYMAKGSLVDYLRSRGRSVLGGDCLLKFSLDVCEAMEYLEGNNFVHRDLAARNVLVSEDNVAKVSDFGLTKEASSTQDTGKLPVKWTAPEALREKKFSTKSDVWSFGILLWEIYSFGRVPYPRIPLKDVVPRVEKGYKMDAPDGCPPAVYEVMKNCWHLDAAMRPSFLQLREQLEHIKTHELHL
How it was run: as §1

[15] = tested on: PI4KA, PI4KAP2; conditions: 5 µM; ATP; SGTPMQSAAKAPYLAK
How it was run: as §1

[16] = molecular target: T13, ZAK (Homo sapiens, UniProt Q9NYL2); conditions: Lys1
T13 construct: endogenous in cells; host or cells: PANC-1 cell lysate
How it was run: as §1

[17] = molecular target: T14, DRAK1 (Homo sapiens, UniProt Q9UEE5); conditions: Lys2
T14 construct: endogenous in cells; host or cells: PANC-1 lysate
How it was run: as §1

[18] = molecular target: T15, ITPK1 (Homo sapiens, UniProt Q13572); conditions: ATP Loop
T15 construct: we opted to conduct a kinome screen (KiNativ) in PANC-1 cell lysates; endogenous in cells; host or cells: PANC-1 cell lysate
How it was run: as §1

[19] = tested on: DRAK1, DRAK2; conditions: 5 µM; ATP Loop; GKFAVVR
How it was run: as §1

[20] = molecular target: T16, NEK4 (Homo sapiens, UniProt P51957); conditions: Lys2
T16 construct: endogenous in cells; host or cells: PANC-1 cell lysate
How it was run: as §1

[21] = molecular target: T17, Erk1 (Homo sapiens, UniProt P27361); conditions: Lys2
T17 construct: endogenous in cells; host or cells: PANC-1 lysate
T17 sequence (P27361 whole entry): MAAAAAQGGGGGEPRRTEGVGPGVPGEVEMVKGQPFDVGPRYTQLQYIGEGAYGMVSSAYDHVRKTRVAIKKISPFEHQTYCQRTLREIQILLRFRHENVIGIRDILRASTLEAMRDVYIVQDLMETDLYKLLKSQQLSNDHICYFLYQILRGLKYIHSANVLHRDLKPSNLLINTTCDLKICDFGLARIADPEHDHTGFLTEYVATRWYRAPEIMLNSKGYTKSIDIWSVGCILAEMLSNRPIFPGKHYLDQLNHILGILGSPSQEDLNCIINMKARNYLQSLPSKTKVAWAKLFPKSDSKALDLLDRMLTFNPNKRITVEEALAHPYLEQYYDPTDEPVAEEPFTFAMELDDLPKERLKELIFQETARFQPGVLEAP
How it was run: as §1

[22] = molecular target: T18, CDK2 (Homo sapiens, UniProt P24941)
T18 construct: endogenous in cells; host or cells: PANC-1 cell lysate
How it was run: as §1

[23] = molecular target: T19, MAP3K3 (Homo sapiens, UniProt Q99759); conditions: Lys1
T19 construct: endogenous in cells; host or cells: PANC-1 cell lysate
How it was run: as §1

[24] = molecular target: T20, NEK3 (Homo sapiens, UniProt P51956); conditions: ATP Loop
T20 construct: endogenous in cells; host or cells: PANC-1 cell lysate
How it was run: as §1

[25] = molecular target: T21, p70S6Kb (Homo sapiens, UniProt Q9UBS0); conditions: Lys2
T21 construct: endogenous in cells; host or cells: PANC-1 cell lysate
How it was run: as §1

[26] = molecular target: T22, TLK1 (Homo sapiens, UniProt Q9UKI8); conditions: Lys2
T22 construct: endogenous in cells; host or cells: PANC-1 cell lysate
T22 sequence (Q9UKI8 whole entry): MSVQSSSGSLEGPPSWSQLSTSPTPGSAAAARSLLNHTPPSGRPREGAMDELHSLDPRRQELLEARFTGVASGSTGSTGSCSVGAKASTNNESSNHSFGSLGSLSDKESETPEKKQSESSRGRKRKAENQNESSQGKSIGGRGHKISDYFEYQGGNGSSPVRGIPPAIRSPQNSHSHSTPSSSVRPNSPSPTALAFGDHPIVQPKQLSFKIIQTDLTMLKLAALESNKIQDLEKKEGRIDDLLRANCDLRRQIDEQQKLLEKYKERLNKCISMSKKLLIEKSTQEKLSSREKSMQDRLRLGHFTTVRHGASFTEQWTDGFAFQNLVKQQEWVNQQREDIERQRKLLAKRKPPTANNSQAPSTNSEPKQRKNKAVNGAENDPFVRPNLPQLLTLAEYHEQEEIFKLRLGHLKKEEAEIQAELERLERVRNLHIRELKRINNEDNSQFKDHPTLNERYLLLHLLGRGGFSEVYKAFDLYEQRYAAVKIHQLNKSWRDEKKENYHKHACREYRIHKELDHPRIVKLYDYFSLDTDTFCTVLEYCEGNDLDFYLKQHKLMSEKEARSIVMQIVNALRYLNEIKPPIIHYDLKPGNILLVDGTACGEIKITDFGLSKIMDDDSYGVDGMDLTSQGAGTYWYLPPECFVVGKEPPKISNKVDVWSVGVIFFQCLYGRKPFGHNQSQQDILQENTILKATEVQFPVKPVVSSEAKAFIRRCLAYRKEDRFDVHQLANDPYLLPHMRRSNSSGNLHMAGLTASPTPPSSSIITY
How it was run: as §1

T1 sequence (Q9NWZ3 whole entry): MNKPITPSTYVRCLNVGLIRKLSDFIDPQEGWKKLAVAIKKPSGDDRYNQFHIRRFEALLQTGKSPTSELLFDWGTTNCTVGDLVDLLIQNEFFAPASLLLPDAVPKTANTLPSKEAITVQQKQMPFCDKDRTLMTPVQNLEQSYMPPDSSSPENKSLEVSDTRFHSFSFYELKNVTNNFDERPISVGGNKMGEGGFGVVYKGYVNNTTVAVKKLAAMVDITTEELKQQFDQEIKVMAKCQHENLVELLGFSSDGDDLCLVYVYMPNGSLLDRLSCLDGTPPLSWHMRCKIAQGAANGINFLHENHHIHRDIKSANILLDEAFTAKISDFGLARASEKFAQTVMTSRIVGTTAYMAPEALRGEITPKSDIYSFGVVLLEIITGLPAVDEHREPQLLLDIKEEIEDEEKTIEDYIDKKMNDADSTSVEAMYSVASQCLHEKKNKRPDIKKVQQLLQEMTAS

Cn1cc(-c2cnc3ccc(NC(=O)Nc4ccc(F)c(C(F)(F)F)c4)cc3n2)cn1 [51-106, 1-(4-Fluoro-3-(trifluoromethyl)phenyl)-3-(3-(1-methyl-1H-pyrazol-4-yl)quinoxalin-6-yl)urea]
inhibition at 5 µM ([1]; Lys1, GYVNNTTVAVKK): ≤ 0% | inhibition at 5 µM ([1]; Lys2, DIKSANILLDEAFTAK): 1.2% | inhibition at 5 µM [2]: 14.3% | inhibition at 5 µM ([3]; ATP Loop, LCDFGISGQLVDSIAKTR): 6% | inhibition at 5 µM ([3]; Lys2, DIKPSNILLDR): ≤ 0% | % Inhibition [4]: NB (NB = No Binding (≤ 0)) | inhibition at 5 µM [5]: ≤ 0% | inhibition at 5 µM [6]: ≤ 0% | inhibition at 5 µM [7]: ≤ 0% | % Inhibition ([8]; Lys1, VYAMKLLSK): 11.9% | % Inhibition ([8]; Lys2, DVKPDNMLLDK): NB (NB = No Binding (≤ 0)) | inhibition at 5 µM ([9]; Lys1, VDTHALYAMKTLR): ≤ 0% | inhibition at 5 µM ([9]; Lys2, DIKPDNILIDLDGHIK): 1.4% | inhibition at 5 µM [10]: ≤ 0% | inhibition at 5 µM [11]: 2.2% | inhibition at 5 µM [12]: 4.2% | inhibition at 5 µM ([13]; Lys1, AQNKETSVLAAAKVIDTK): ≤ 0% | inhibition at 5 µM ([13]; Lys2, DLKAGNILFTLDGDIK): 7% | % Inhibition ([14]; 5 µM, ATP Loop, VSDFGLTKEASSTQDTGKLPVK): NB (NB = No Binding (≤ 0)) | inhibition at 5 µM ([14]; Lys1, VAVKCIK): ≤ 0% | % Inhibition [15]: 3.0% | inhibition at 5 µM [16]: ≤ 0% | inhibition at 5 µM [17]: ≤ 0% | inhibition at 5 µM [18]: ≤ 0% | % Inhibition [19]: 4.6% | inhibition at 5 µM [20]: 5.8% | inhibition at 5 µM [21]: ≤ 0% | % Inhibition ([22]; 5 µM, Lys1, LTGEVVALKK): 12% | inhibition at 5 µM ([22]; Lys1, LTGEVVALKK): 12.3% | inhibition at 5 µM ([22]; Lys2, DLKPQNLLINTEGAIK): ≤ 0% | inhibition at 5 µM [23]: 11.4% | inhibition at 5 µM [24]: 5.1% | inhibition at 5 µM [25]: 22.5% | inhibition at 5 µM [26]: 6.2%
